In assay [1] the target is streptavidin (Streptomyces avidinii, UniProt P22629). Description: biochemical.
Protocol: Surface plasmon resonance (SPR) experiments were performed on a BIAcore X100 (GE Healthcare). The running buffer was HBS-EP+. To prepare a streptavidin coated chip, 100 ug/mL streptavidin in Acetate 5.0 immobilization buffer was coupled to flow cell 2 of a CM5 chip using the Amine Coupling Kit (GE Healthcare. The chip was then conditioned by flowing a solution containing 0.2 M NaCl and 10 mM NaOH in water over the prepared chip for 60 seconds. The binding affinities of the cyclic and linear peptides were measured against the prepared streptavidin chip using a multiple cycle experiment with base regeneration between each step. Here, seven prepared concentrations of peptide in HBS-EP+ buffer were flowed over the streptavidin chip for 30 seconds and then allowed to dissociate for 60 seconds. Following each peptide concentration, the streptavidin chip was regenerated by flowing 0.2 M NaCl and 10 mM NaOH in water over the chip for 30 seconds followed by a stabilization period of 120 seconds. Kinetic parameters were determined using BIAcore X100 Evaluation Software Version 2.0.1.
The target of assay [2] is streptavidin-Cy5 (Streptomyces avidinii, UniProt P22629). Description: Streptavidin-Cy5 binding to cyclic/linear peptide microarray, Cy5 fluorescence scan. The method, then: Slides were bound with […] streptavidin-Cy5 in 30 mL binding buffer for 30 minutes at room temperature. Binding buffer contained 1% alkali soluble casein and 0.05% tween-20 in 1×TBS, pH 7.4. After 30 minutes, slides were washed twice in 1×TBS buffer for 1 minute, water for 30 seconds, and spun to dryness.
Cy5 fluorescence intensity of the arrays was measured with MS200 scanner (Roche NimbleGen) at resolution 2 um, wavelength 635 nm, gain 25% and laser intensity 100%. Cy5 signal intensities were extracted using Image Extraction Software (Roche NimbleGen). Data pre-processing, normalization and statistical tests were done in R. Data visualization and analysis were performed with Spotfire 6.5.0 (Tibco, Boston, Mass.) software platform.

[3] abbreviates: extension of HPQ-specific design JXXHPQXXJU, all J combinations (Example 12), FIG. 15.

Square brackets hold non-standard residues; d marks the D form. Peptide text beside a SMILES is read from it.

The values that follow come from patent publication US20160367961A1, “METHOD AND COMPOSITION FOR PEPTIDE C[…] PROTEASE TREATMENT” (Roche Sequencing Solutions, Inc., priority 2015, published 2016).

One may read the Kd as the constant that tells how readily two partners part at equilibrium.

Chain of streptavidin (P22629 25-183, species assumed): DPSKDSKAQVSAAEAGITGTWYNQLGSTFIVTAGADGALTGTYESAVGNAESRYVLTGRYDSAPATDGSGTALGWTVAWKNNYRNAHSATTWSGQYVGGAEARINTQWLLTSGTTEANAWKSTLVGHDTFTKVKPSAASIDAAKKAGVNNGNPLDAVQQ
Chain of streptavidin-Cy5 (P22629 25-183): as the sequence (P22629 25-183, species assumed) above

In assay [1], `CC(C)C[C@@H]1NC(=O)[C@H](CCC(N)=O)NC(=O)CNC(=O)CNC(=O)[C@H](CC(N)=O)NC(=O)[C@H](CCC(N)=O)NC(=O)[C@@H]2CCCN2C(=O)[C@H](Cc2c[nH]cn2)NC(=O)[C@H](CC(=O)O)NC(=O)[C@H](Cc2ccc(O)cc2)NC1=O` [cyclic LYDHPQNGGQ, LYDHPQNGGQ] (cyclo(DHPQNGGQLY)) returned a Kd of 9.4 µM.

`NC(=O)CC[C@@H]1NC(=O)[C@H](Cc2c[nH]c3ccccc23)NC(=O)[C@H]2CCCN2C(=O)[C@H](CCC(N)=O)NC(=O)[C@H](CC(N)=O)NC1=O` [cyclic NQpWQ, NQpWQ] (cyclo(NQ[dP]WQ)): in assay [1], the affinity, expressed as Kd, was 61.3 µM. Molecule `NC(=O)CC[C@@H]1NC(=O)CNC(=O)CNC(=O)[C@H](CC(N)=O)NC(=O)[C@H](CCC(N)=O)NC(=O)[C@@H]2CCCN2C(=O)[C@H](Cc2c[nH]cn2)NC(=O)[C@H](CC(=O)O)NC(=O)[C@H](CC(N)=O)NC(=O)[C@H](CCC(N)=O)NC1=O` [cyclic QNDHPQNGGQ, QNDHPQNGGQ] (cyclo(DHPQNGGQQN)) showed a Kd in assay [1] of 10.8 µM. `NC(=O)CC[C@H](NC(=O)[C@H](Cc1c[nH]c2ccccc12)NC(=O)[C@H]1CCCN1C(=O)[C@H](CCC(N)=O)NC(=O)[C@@H](N)CC(N)=O)C(=O)O` [linear NH2-NQpWQ-COOH, NH2-NQpWQ-COOH] (H-NQ[dP]WQ-OH): the Kd in assay [1] was > 2000 µM. Take “H-LYDHPQNGGQ-OH [linear NH2-LYDHPQNGGQ-COOH, NH2-LYDHPQNGGQ-COOH]”: the Kd in assay [1] was determined as 100 µM. On the same count and under the same terms, for “H-QNDHPQNGGQ-OH [linear NH2-QNDHPQNGGQ-COOH, NH2-QNDHPQNGGQ-COOH]” the value was 320 µM.

For “LYDHPQNGGU (cyclo(LYDHPQNGGE); also: position 10: U in name, array-bound via glutamate side chain) [cylic LYDHPQNGGU, U = glutamate attached to the surface through its side chain]”, the cyclic fluorescent intensity result in assay [2] (setting [3]) is “highest cyclic intensity”.

“NQpWU (cyclo(NQ[dP]WE); also: position 5: U in name, array-bound via glutamate side chain) [cylic NQpWU, U = glutamate attached to the surface through its side chain, p = D-proline]”: the cyclic fluorescent intensity entry in assay [2] (peptide library of the format XXXXU (Example 9), cyclic subarray, FIG. 10) is recorded as “highest cyclic fluorescent intensity”. For the molecule “QNDHPQNGGU (cyclo(QNDHPQNGGE); also: position 10: U in name, array-bound via glutamate side chain) [cyclic QNDHPQNGGU, U = glutamate attached to the surface through its side chain]”, the “log fold change (logFC) between cyclic and linear fluorescent intensity” value in assay [2] (extension of HPQ-specific design JXXHPQXXJU (Example 12), FIG. 15, positive logFC = preference for cyclic peptide) is listed as “high logFC”. For the same molecule, the cyclic fluorescent intensity result in assay [2] (setting [3]) is on record as “high cyclic intensitiy”.
